Columns and labels:
[1] = Stability test in aqueous solution by HPLC; type: physicochemical; settings: 1 μM in PBS with 1% DMSO, within 72 h
Experimental: To test the stability of EB148 in aqueous solution, the compound was dissolved in DMSO and diluted with PBS to the final 1 μM concentration (the amount of DMSO in the final solution was 1%). The solution was maintained in a closed vial and analysed by HPLC at specific times (4, 8, 24, 48 and 72 h) using the following conditions: column Shim-pack VP-ODS 4.6 μm (250 mm × 4.6 mm), isocratic elution with water, flow rate of 1 ml/min, room temperature. The percentage of decomposition was calculated on the base of peak area of the product.

[2] = system: mitochondria isolated from U87MG cells; assay: Mitochondrial membrane potential (Δψm) dissipation, JC-1 protocol; type: biochemical, human; settings: 1 μM, 20 min; for JC-1 accumulation (Δψm) compared to control untreated mitochondria: isolated mitochondria
Experimental: The Δψm dissipation was assessed using the fluorescent dye 5,59,6,69-tetrachloro1,19,3,39-tetraethylbenzimidazolylcarbocyanine iodide (JC-1). Mitochondria were isolated from U87MG cells using the Mitochondria Isolation Kit (Sigma Aldrich, Milan, Italy) following manufacturer's instructions.
Isolated mitochondria were treated for 20 min with EB54 or EB148 (1 μM). In wash-out experiments, mitochondria were then centrifuged at 11.000 × g for 5 min, washed with fresh saline and suspended in JC-1 buffer not containing the drugs. At the end of treatments, 5 μg of control and treated mitochondria were added to the JC-1 dye. The fluorescence (relative fluorescence units, RFU) of the sample was read in a spectrofluorimeter using a time-drive method (one acquisition each 10 sec, for 10 min), where the excitation wavelength was set to 490 nm and emission wavelength at 590 nm. […] Consequently, mitochondrial depolarization is indicated by a decrease in the orange-red fluorescence intensity.

[3] = system: mesenchymal Stem Cells (MSCs) isolated from human bone marrow; assay: Toxicity in non-tumour cells, MSC proliferation by MTS assay; type: cell-based; settings: 72 h; EB54 at 10 μM; EB148 up to the highest concentration tested
Experimental: […]. At the end of treatments, cell proliferation was measured by MTS assay.

U87MG cells [4] = assay: U87MG cell viability, trypan blue exclusion test; type: cell-based, human; settings: 72 h, maximal effect at 100 μM
Experimental: The effects of compound treatment on U87MG cell viability and proliferation were evaluated by Trypan blue exclusion assays and MTS assay, respectively. U87MG cells were treated with EB148 or EB54 for 72 h. Following treatment, harvested cells were mixed with an equal volume of 0.4% trypan blue dye. For quantization of cell viability, blue and bright cells were counted, and viability was calculated as the number of living (bright) and dead (blue) cells in each well. To establish the effect of MDM2 inhibitors on cell proliferation, cells were treated for 72 h with different concentrations of each compound (0.1 nM–100 μM) for 72 h, and then MTS assay was performed according to the manufacturer's instructions.

ERK1/2 = ERK1/2 phosphorylation ELISA in U87MG cells; type: cell-based, human; settings: for ERK1/2 phosphorylation: 1 μM, up to 8 h; for effect of blocking p53 on compound-mediated ERK1/2 activation: pifithrin-β 1 μM 30 min, then compound 1 μM 2 h
Experimental: Figure 10 ERK phosphorylation and levels of ERK/MDM2 complex in U87MG cells A. U87MG cells were treated with DMSO (control), 1 μΜ EB148 or 1 μΜ EB54 for the indicated times; in some experiments, after 2 h of treatment the medium was replaced by fresh medium not containing drugs for an additional 2 h. At the end of the treatment period the levels of ERK 1/2 phosphorylation were evaluated using ELISA kits, as described in the Methods section. The data are expressed as the percentage of phosphorylated ERK1/2 versus untreated cells (control), which were set at 100%. Data are the mean values ± SEM of three independent experiments performed in triplicate. Analysis of significant differences in mean ERK/MDM2 complex levels was performed using one-way ANOVA with a Bonferroni post-test: * p< 0.05, ** p< 0.01, *** p<0.001 vs. control. […] C. U87MG cells were treated with DMSO (control), 1 μΜ EB148 or 1 μΜ EB54 for the indicated times; in some experiments, after 8 h of treatment, the medium was replaced by fresh medium not containing drugs for an additional 24 h. At the end of the treatment period, U87MG cells were collected and suspended in lysis buffer. Equal amounts of cell lysates were captured on wells pre-coated with MDM2 antibody. After extensive washing, the levels of the ERK/MDM2 complex were quantified using an antibody specific for ERKs, and subsequently an HRP-conjugated antibody and a TMB substrate kit. Data are expressed as percentage of control set to 100%, and represent the mean ± SEM of three independent experiments. The significance of the differences was determined with a one-way ANOVA with Bonferroni post-test: * p<0.05, ** p<0.01, *** p<0.001 vs. control.

human TSPO [5] = molecular target: T1, human TSPO (Homo sapiens, UniProt P30536); assay: Equilibrium [3H]PK11195 radioligand binding assay in U87MG cell membranes
T1 construct: aliquots of U87MG cell membranes (20 μg of proteins) were incubated with [^3H]PK 11195 (1.5 nM); endogenous in cells; host or cells: U87MG human glioblastoma cell membranes
T1 sequence (P30536 whole entry): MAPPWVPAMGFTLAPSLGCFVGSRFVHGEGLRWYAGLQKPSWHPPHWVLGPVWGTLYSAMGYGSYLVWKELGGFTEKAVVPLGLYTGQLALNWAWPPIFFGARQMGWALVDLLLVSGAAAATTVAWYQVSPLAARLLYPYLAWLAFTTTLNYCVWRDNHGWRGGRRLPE
Experimental: Equilibrium radioligand binding assays were performed essentially as previously described. […] Samples were rapidly filtered under vacuum through GF/C glass fiber filters.

p53/MDM2 complex = molecular target: T2, p53/MDM2 complex (Homo sapiens, UniProt Q00987); assay: Levels of p53/MDM2 complex in U87MG whole cells (ELISA); type: cell-based
T2 construct: endogenous in cells; host or cells: U87MG human glioblastoma cells, treated whole and then lysed
T2 sequence (Q00987 whole entry, one chain of several): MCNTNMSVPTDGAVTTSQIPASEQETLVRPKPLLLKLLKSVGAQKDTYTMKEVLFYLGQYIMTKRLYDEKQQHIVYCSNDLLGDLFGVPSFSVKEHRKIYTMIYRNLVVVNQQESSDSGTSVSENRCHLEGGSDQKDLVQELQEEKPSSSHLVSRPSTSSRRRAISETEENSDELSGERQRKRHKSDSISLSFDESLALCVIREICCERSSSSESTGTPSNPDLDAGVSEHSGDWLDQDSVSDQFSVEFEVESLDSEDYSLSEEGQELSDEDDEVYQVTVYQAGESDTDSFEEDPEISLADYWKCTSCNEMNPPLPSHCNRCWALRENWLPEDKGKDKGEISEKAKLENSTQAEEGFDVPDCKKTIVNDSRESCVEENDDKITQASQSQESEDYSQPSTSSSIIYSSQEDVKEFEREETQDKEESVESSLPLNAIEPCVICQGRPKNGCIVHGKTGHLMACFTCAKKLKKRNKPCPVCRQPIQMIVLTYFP
Experimental: (§1) U87MG cells were treated with DMSO (control), EB148 or EB54 for different times. When indicated, after 8 h of incubation, cells were washed twice with fresh saline and cultured in drug-free medium for an additional 24 h. At the end of the treatment period, the cells were collected, and suspended in lysis buffer containing 1% of the Protease inhibitor Cocktail.

[6] = system: p53 target genes (p53, p21 and MDM2); assay: Relative mRNA quantification of p53 target genes by real-time RT-PCR; type: cell-based, human; settings: for levels of p53 target gene transcripts after wash-out: treated for 2 h (text; legend: 16 h), washed out for 16 h in drug-free medium
Experimental: In brief, total RNA was extracted from control cells as well as from cells treated with EB148 or EB54 (1 μM) for different times (8 h, 16 h or 24 h), using RneasyH Mini Kit (Qiagen, Hilden, Germany), according to manufacturer's instructions. cDNA synthesis was performed with 500 ng of RNA using i-Script cDNA synthesis kit (BioRad, Hercules, USA). RT-PCR reactions consisted of 25 μl FluocycleH II SYBRH (Euroclone, Milano, Italy), 1.5 μl of both 10 μM forward and reverse primers (listed in [56]), 3 μl cDNA, and 19 μL of H2O. […] PCR specificity was verified by both the melting curve analysis and gel electrophoresis.

MDM2/p53 complex [7] = molecular target: T3, MDM2/p53 complex (Homo sapiens, UniProt Q00987); assay: Association and dissociation kinetics towards MDM2 in U87MG cell lysates; type: biochemical; settings: lysates treated at ten-fold IC50, diluted 1:20, 0-180 min
T3 construct: endogenous in cells; host or cells: crude lysates of U87MG human glioblastoma cells
T3 sequence (Q00987 whole entry, one chain of several): as above
Experimental: Following incubation, cell lysates were captured on wells pre-coated with MDM2 antibody for an additional 60 min.
Dissociation was initiated by the addition of 20 volumes of cold buffer, and lysates were further incubated at 4°C for the indicated times (0-180 min). Following incubation, 200 μl of the mixture were captured on wells pre-coated with MDM2 antibody for an additional 60 min.

MDM2/p53 complex [8] = molecular target: T3, MDM2/p53 complex; assay: Dissociation of native MDM2/p53 complex, sandwich immuno-enzymatic assay on U87MG cell lysates; type: biochemical
Experimental: Cells were washed twice in ice-cold phosphate-buffered saline, collected by centrifugation, and suspended in lysis buffer (20 mM Tris HCl, 137 mM NaCl, 10% glycerol, 1% NONIDET40, 2 mM EDTA, pH 8) containing 1% of the Protease inhibitor Cocktail (Sigma Aldrich, Milan, Italy). 96-wells were pre-coated with a mouse full-length anti-MDM2 antibody (sc-965, Santa Cruz Biotechnology, 1:50 in 0.05% Poly-L-Ornithine) overnight at room temperature. Cell lysates (20 μg in a final volume of 100 μl) were pre-incubated with DMSO (control), or different compound concentration for 10 min at room temperature, and then transferred to the pre-coated wells for 60 min. After three quick washes with PBS/Tween 0.05% to remove unbound MDM2, each well was incubated for 15 min with 1% BSA, to block nonspecific sites, and then for 1.5 h at room temperature with a rabbit primary anti-p53 antibody (sc-6243, Santa Cruz Biotechnology, 1:250). Then, wells were washed and incubated for 1 h with an anti-rabbit HRP-conjugate antibody, and washed again. […] Blanks were obtained processing cell lysates in the absence of the primary anti-p53 antibody.

ERK/MDM2 complex = assay: Levels of ERK/MDM2 complex in U87MG cells (ELISA); type: cell-based, human
Experimental: as §1

U87MG cells [9] = assay: U87MG cell proliferation, MTS assay; type: cell-based, human; settings: for cell proliferation 72 h after cell wash-out: U87MG, 72 h treatment, then drug-free medium 72 h
Experimental: The effects of compound treatment on U87MG cell viability and proliferation were evaluated by Trypan blue exclusion assays and MTS assay, respectively. […] For quantization of cell viability, blue and bright cells were counted, and viability was calculated as the number of living (bright) and dead (blue) cells in each well.
The absorbance of formazan at 490 nm was measured in a colorimetric assay with an automated plate reader (Victor Wallac 2, Perkin Elmer). For wash-out experiments, U87MG cells were treated with EB148 or EB54 (100 nM-10 μM) for 72 h. Following incubation, medium-containing drugs was replaced by fresh medium, and cells were allowed to growth for the indicated days. At the end of treatments, cell proliferation was measured by MTS assay. The results were calculated by subtracting the mean background from the values obtained from each evaluation and were expressed as the percentage of the control (untreated cells). Sigmoid dose-response curve was generated, from which the IC50 values were derived.

human TSPO [10] = molecular target: T1, human TSPO; assay: TSPO association/dissociation and competition kinetics with [3H]PK11195; type: binding; settings: for Kd: calculated as ratio of estimated koff and kon
Excerpt: Association and dissociation rate constants for [^3H]
For competition kinetics, the [^3H]

p53 protein = p53 protein accumulation by western blotting; type: cell-based, human; settings: for p53 protein levels after wash-out: 1 μM for 16 h, then wash-out of 16 h; for p53 protein levels: 1 μM, 16 h
Experimental: U87MG were treated with DMSO (control), EB148 or EB54 for 16 h. […] […] Glyceraldehyde-3-phosphate dehydrogenase (GAPDH) was the loading control ([…], Sigma Aldrich, Milan, Italy, 1:5000). The primary antibodies were detected using the appropriate peroxidase-conjugated secondary antibodies, which were then detected using a chemioluminescent substrate (ECL, Perkin Elmer). Densitometric analysis of the immunoreactive bands was performed using Image J Software.

U87MG cells [11] = assay: Annexin V and 7-AAD staining (apoptosis); type: cell-based, human; settings: 1 μM, 24 h
Experimental: Dual staining with Annexin V coniugated to fluorescein-isothiocyanate (FITC) and 7-amino-actinomysin (7-AAD) was performed using the commercially available kit (Muse Annexin V and Dead Cell Kit; Merck KGaA, Darmstadt, Germany).
U87MG cells were treated with DMSO (control), EB54 or EB148 (1 μM) for 24 h. Both floating and adherent cells were collected, and incubated for 10 min at room temperature with the fluorescent reagent. After incubation, the percentages of living, apoptotic and dead cells were acquired and analyzed by MuseTM Cell Analyzer in accordance to the manufacture's guidelines.

SMILES	JC-1 accumulation (Δψm) compared to control untreated mitochondria [2]	MSC viability/proliferation [3]	total number of living cells (U87MG cells [4])	ERK1/2 phosphorylation (ERK1/2)	effect of blocking p53 on compound-mediated ERK1/2 activation (ERK1/2)	Ki (human TSPO [5])	levels of p53 target gene transcripts after wash-out [6]	cell proliferation 72 h after cell wash-out (U87MG cells [9])	koff (human TSPO [10])	kon (human TSPO [10])	Kd (human TSPO [10])	p53 protein levels after wash-out (p53 protein)	p53 protein levels (p53 protein)	phosphatidylserine externalization (early and late apoptosis) (U87MG cells [11])	other results
CCOC(=O)[C@@H](Cc1ccccc1)NC(=O)[C@H](CC(C)C)NC(=O)C(=O)c1c(-c2ccccc2)[nH]c2ccc(N=C=S)cc12 [EB148]	significant reduction	did not affect MSC proliferation	reduced the total number of living cells	significant ERK phosphorylation	completely impaired	0.199 ± 0.018 µM	returned to control values	inhibition of cell proliferation was maintained	8.01e-05 s⁻¹	5350 M⁻¹ s⁻¹	0.15 µM	maintained high p53 levels	slight but significant increase	significant phoshpatidilserine externalization	average peak area (stability in aqueous solution) [1]: 98.83 ± 0.47%; Δψm after mitochondria wash-out ([2]; then centrifuged and washed to remove the ligands): determined Δψm collapse; ERK activation after cell wash-out (ERK1/2; 1 μM for 2 h, then drug-free medium for 2 h): continued to significantly activate; p53-MDM2 complex formation after 24 h cell wash-out (p53/MDM2 complex; 1 μM for 8 h, then 24 h wash-out): significantly lower than in the control; p53-MDM2 complex in whole cells (p53/MDM2 complex; 1 μM, 8 h): inhibited; induction of MDM2 mRNA ([6]; 1 μM, 8 h): 6.9 fold; induction of MDM2 mRNA ([6]; 1 μM, 16 h): 8.8 fold; induction of MDM2 mRNA ([6]; 1 μM, 24 h): 2.2 fold; mRNA expression of p53 target genes ([6]; 1 μM, up to 24 h of cell treatment): sustained increase; activity in inhibiting p53-MDM2 complex after sample dilution (MDM2/p53 complex [7]): maintained unchanged; IC50 (MDM2/p53 complex [8]): 0.00681 ± 0.00079 µM; ERK/MDM2 association after cell wash-out (ERK/MDM2 complex; 1 μM for 8 h, then wash-out for 24 h): remained significant; ERK/MDM2 complex formation (ERK/MDM2 complex; 1 μM, 8 and 24 h): significant and marked induction; IC50 (U87MG cells [9]; Homo sapiens, U-87 MG, 72 h, read-out: IC50 of cell proliferation): 0.0916 ± 0.0089 µM
CCOC(=O)[C@@H](Cc1ccccc1)NC(=O)[C@H](CC(C)C)NC(=O)C(=O)c1c(-c2ccccc2)[nH]c2ccccc12 [EB54]	significant reduction	significantly decreased	reduced the total number of living cells	did not induce any significant ERK1/2 stimulation	did not significantly affect	0.108 ± 0.01 µM	down-regulated	significant recovery in proliferative activity	0.000482 s⁻¹	3600 M⁻¹ s⁻¹	0.134 µM	control levels	slight but significant increase	significant phoshpatidilserine externalization	mRNA expression level of p21, p53 and MDM2 ([6]; 1 μM, 8 and 16 h): significant increase; mRNA expression of p21, p53 and MDM2 ([6]; 1 μM, after 24 h): significantly lower than controls

Reference: paper PMC4884960, “Long lasting MDM2/Translocator protein modulator: a new strategy for irreversible apoptosis of human glioblastoma cells” (Oncotarget, 2016)
